Series [1] has as its system HepG2. Kind of series: Antiproliferative activity against human HepG2 cells assessed cell survival after 24 hrs by alamarBlue assay. It counts as functional, cell-based.
Series [2] deals with HepG2. In words: Cytotoxicity against human HepG2 cells assessed cell death after 72 hrs at 2 uM by alamarBlue assay relative to control. The settings on record: HepG2, 72 h. It counts as functional. (In general: Alamar Blue is a resazurin reagent that responds to reducing activity.)
For series [3], the system named is HepG2. Kind of series: Cytotoxicity against human HepG2 cells assessed cell death after 72 hrs at 3 uM by alamarBlue assay relative to control. As to conditions: HepG2, 72 h. In kind it is functional.
For series [4], the system named is HepG2. Kind of series: Cytotoxicity against human HepG2 cells assessed cell death after 72 hrs by alamarBlue assay relative to control. In kind it is functional, cell-based. As to conditions: HepG2, 72 h.
The test system of series [5] is HepG2. In words: Drug formation in human HepG2 cells treated at 1 uM Epox/Ind by mass spectrometry. It counts as ADME, cell-based. The settings on record: hepg2, 1 µM.
Series [6] is described as follows: Retention time of the compound by HPLC chromatogram. It counts as physicochemical.
Series [7] has as its system HepG2. Kind of series: Cytotoxicity against human HepG2 cells assessed cell death after 24 hrs at 1 uM by alamarBlue assay relative to control. In kind it is functional. The settings on record: HepG2, 24 h.
In series [8] the test system is HepG2. In words: Drug metabolisam in human HepG2 cells assessed as indirubin 3'-(O-2,3-dihydroxypropyl)oxime formation at 1 uM by mass spectrometry. In kind it is ADME, cell-based. As to conditions: hepg2, 1 µM.
Series [9] concerns HepG2. In words: Cytotoxicity against human HepG2 cells assessed cell survival rate after 24 hrs at 2 uM by alamarBlue assay relative to control. In kind it is functional.
The subject of series [10] is HepG2. In words: Cytotoxicity against human HepG2 cells assessed cell survival rate after 72 hrs at 2 uM by alamarBlue assay relative to control. It counts as functional.
The test system of series [11] is HepG2. In words: Cytotoxicity against human HepG2 cells assessed cell survival after 24 hrs at 10 uM by alamarBlue assay. In kind it is functional, cell-based.
Where [12] appears, read: Homo sapiens, HepG2, 24 h, read-out: IC50.

Each structure is given as a SMILES string. Active and inactive are the calls of the source. The rule behind the calls is not given here.

Usually IC50 stands for the concentration that gives 50% inhibition. For orientation: inhibition means how much of the control response was suppressed. A lower inhibition goes with a weak effect.

Take `O=C1Nc2ccccc2/C1=C1/Nc2ccccc2/C1=N\O`: the IC50 with HepG2 [1] (setting [12]) was 15000 nM.

`O=C1Nc2ccccc2/C1=C1/Nc2ccccc2C1=O` [INDIRUBIN]: the IC50 result in the series on HepG2 [1] (hepg2) is recorded as “Not Active”.

In the case of `O=C1Nc2ccccc2/C1=C1/Nc2ccccc2/C1=N\OCC(O)CO` (stereo not drawn), the IC50 in the series with HepG2 [1] (setting [12]) came to 2100 nM; in the series on HepG2 [4], 2800 nM. Also, in the series on HepG2 [2], at 2 µM the inhibition was 15%. The inhibition at 3 µM in the series with HepG2 [3] was determined as 58%. Moreover, the Drug metabolism result in the series on HepG2 [5] is given as “metabolite_detected”. For the same compound, the Retention_time in series [6] is reported as 3.392 min.

As to `O=C1Nc2ccccc2/C1=C1/Nc2ccccc2/C1=N\OCC1CO1` (stereo not drawn), the IC50 was 1700 nM in the series on HepG2 [1] (setting [12]) and 2300 nM in the series with HepG2 [4]. For the same compound, testing at 1 µM in the series with HepG2 [7] gave an inhibition of 25%. Moreover, 2 µM produced 31% inhibition in the series with HepG2 [2]. The inhibition at 3 µM in the series with HepG2 [3] came out at 89%. Moreover, the Drug metabolism entry with HepG2 [8] is given as “metabolite_detected”. Moreover, the Activity with HepG2 [9] was 69%; in the series on HepG2 [10], 44%. The same compound came in with a Retention_time in series [6] of 4.3 min.

As for `O=C1Nc2ccccc2/C1=N\OCC1CO1` (stereo not drawn), in the series on HepG2 [11], the outcome was inactive.

These data come from ChEMBL document CHEMBL3399924, “Indirubin 3'-(O-oxiran-2-ylmethyl)oxime: a novel anticancer agent” (Bioorg Med Chem Lett, 2015).
